We go through 30 molecules from patent US7132546B2, “Aniline derivatives or salts thereof and cytokine production inhibitors containing the same” (Ishihara Sangyo Kaisha, Ltd., priority 2000, dated 2006).

The test system of data set [1] is interleukin 5 (IL-5) production. Description: Cytokine production inhibitory effect: IL-5 production by murine spleen cells treated with anti-mouse CD3 antibody and IL-2 (ELISA). The format is cell-based, Balb/c mice. As to conditions: anti-CD3 antibody + IL-2, 40 to 48 hours, read-out: IL-5 production inhibitory ratio (%); for inhibition at 100 ppm: test compound 100 ppm. As to the method: (§1) Murine spleen cells were treated with anti-mouse CD3 antibody and IL-2 to induce cytokine production. The test compounds were added to the cytokine production system to evaluate their inhibitory effect. Namely, anti-mouse CD3 antibody adjusted to from 10 to 20 μg/ml with borate buffered physiological saline (pH 8.5) was pipetted into a 96-well cell culture plate in an amount of 50 μl/well and left to stand at 4° C. for 18 hours. The unreacted solution was removed, washing with Hank's buffer solution was carried out once, and IL-2 adjusted to 10 ng/ml with a RPMI liquid containing 10% fetal bovine serum (FCS) was pipetted in an amount of 50 μl/well. For the negative control group, a solution alone without anti-CD3 antibody nor IL-2 was applied. Then, the diluted solution of each of the test compounds (concentration: 100 ppm unless otherwise specified) was pipetted in an amount of 50 μl/well, and a cell suspension of 1×10^7 cells/ml, prepared from spleen of Balb/c mice (female, 7 to 10 week old) was pipetted thereinto in an amount of 100 μl/well. After cultivation in an incubator (37° C., 5% carbon dioxide gas) for from 40 to 48 hours, the culture supernatant was recovered to measure the cytokine production amount by ELISA method.
(§2) With respect to interleukin 5 (IL-5) as a typical Th2 type cytokine and interferon γ (IFN-γ) as a typical Th1 type cytokine, measurements were carried out by the following methods, respectively. Namely, quantitative determination of IL-5 was carried out by the following ELISA method. First, rat anti-mouse IL-5 antibody (Endogen Code No. MM-550C) as a primary antibody was diluted with carbonate buffer solution (pH 9.5) to 1 μg/ml, and spread in a 96 well plate (IWAKI, Code No. 3860-096) in an amount of 50 μl/well for coating at 4° C. overnight (16 to 24 hours). Then, the plate was subjected to blocking at 37° C. for 2 hours by phosphate buffered physiological saline containing 10% FCS (pH 7.2) (blocking buffer solution) (250 μl/well). The plate was washed with PBS (washing buffer) containing 0.05% Tween 20 (Nacalai Tesque, Code No. 281-51) four times, and a diluted liquid of the culture supernatant was spread in an amount of 50 μl/well, followed by incubation at room temperature for 1 hour. For preparation of a standard line, recombinant mouse IL-5 (R&D systems, Code No. 405-ML) was employed. The plate was washed with a washing buffer four times, and biotin-labeled rat anti-mouse IL-5 antibody (Pharmingen, Code No. 18062D) as a secondary antibody diluted to 0.5 μg/ml with a blocking buffer containing 0.05% Tween 20 was added thereto (50 μl/well), followed by incubation at room temperature for 1 hour. The plate was washed with a washing buffer four times, strept avidin-labeled peroxidase (ProZyme, Code No. CJ30H001) diluted 800 times with a blocking buffer containing 0.05% Tween 20 was added thereto (50 μl/well), followed by reaction at room temperature for 15 minutes. The plate was washed with a washing buffer four times, and a […] substrate solution (SIGMA, Code No. T-8665) was added thereto in an amount of 100 μl/well for color developing for from 10 to 20 minutes. A 1M sulfuric acid solution was added thereto in an amount of 100 μl/well to terminate the reaction, and absorption (wavelength 450 nm) was measured by means of micro plate reader (SPECTRA max, Wako Pure Chemicals Industries, Ltd.). Quantitative determination of IFN-γ was carried out in the same manner as the measurement of IL-5, employing rat anti-mouse IFN-γ antibody (Pharmingen, Code No. 18181D) and biotin labeled rat anti-mouse IFN-γ antibody (Pharmingen, Code NO. 18112D), as a primary antibody and a secondary antibody, respectively. For preparation of a standard line, recombinant mouse IFN-γ (GENZYME, Code No. 3485) was employed. The experiment was carried out in duplicate, and the average of the cytokine production amount was obtained. […]
In general terms: An ELISA detects its analyte on a solid surface through an enzyme-linked reagent.

Data set [2] has as its system interferon γ (IFN-γ) production. In words: Cytokine production inhibitory effect: IFN-γ production by murine spleen cells treated with anti-mouse CD3 antibody and IL-2 (ELISA). The following applies: anti-CD3 antibody + IL-2, 40 to 48 hours, read-out: IFN-γ production inhibitory ratio (%); for inhibition at 100 ppm: test compound 100 ppm. The format is cell-based, Balb/c mice. As to the method:
as §1, §2

In general, melting point refers to the temperature, or range, at which the solid turns liquid. Turning to `Cc1cc(C23CC4CC(CC(C4)C2)C3)ccc1NC(=O)c1cc([N+](=O)[O-])ccc1Cl` [Compound No. 1], the melting point amounted to 219 °C. Moreover, the inhibition at 100 ppm in data set [1] is 96%. In data set [2], the inhibition at 100 ppm turned out to be 90%.
`Cc1cc(-c2nc3ccccc3s2)ccc1NC(=O)c1cc([N+](=O)[O-])ccc1Cl` [Compound No. 2] yielded a melting point of 220 to 226 °C. In data set [1] (test compound 2 ppm), the inhibition at 2 ppm turned out to be 74%. Further, the inhibition at 2 ppm in data set [2] (test compound 2 ppm) stood at 84%.
`COc1ccc([N+](=O)[O-])c(OC)c1C(=O)Nc1cc(Cl)cc(Cl)c1` [Compound No. 4] registered a melting point of 173 °C. In addition, the inhibition at 100 ppm in data set [1] was 47%. In addition, the inhibition at 100 ppm in data set [2] was 76%.
The like results for `COc1cccc(C(=O)Nc2ccc(Oc3ccc(C(F)(F)F)cn3)c(Cl)c2)c1` [Compound No. 10] were, in that order, 103 to 105 °C, 100% and 100%.
As for `O=C(Nc1ccc(Oc2ccc(C(F)(F)F)cn2)c(Cl)c1)c1ccc(F)cc1` [Compound No. 12], the melting point lay within 174 to 176 °C. For the same molecule, the inhibition at 100 ppm in data set [1] worked out at 33%.
`O=C(Nc1ccc(Oc2ccc(C(F)(F)F)cn2)c(Cl)c1)c1ccccc1F` [Compound No. 13]: the melting point is 141 to 143 °C. Besides, the inhibition at 100 ppm in data set [1] turned out to be 36%.
In turn, `O=C(Nc1ccc(Oc2ccccc2)cc1)c1cc([N+](=O)[O-])ccc1Cl` [Compound No. 27, N-(4-phenoxyphenyl)-2-chloro-5-nitrobenzamide] yielded a melting point of 128 °C. For the same molecule, in data set [1], the inhibition at 100 ppm worked out at 96%. Also, in data set [2], the inhibition at 100 ppm is 99%.
The like results for `Cc1cc(C23CC4CC(CC(C4)C2)C3)ccc1NC(=O)c1cc([N+](=O)[O-])ccc1Br` [Compound No. 46, N-(4-(1-adamantyl)-2-methylphenyl)-2-bromo-5-nitrobenzamide] were, in that order, 229 °C, 100% and 98%.
The like results for `Cc1cc(C23CC4CC(CC(C4)C2)C3)ccc1NS(=O)(=O)c1cc([N+](=O)[O-])ccc1Cl` [Compound No. 48, N-(4-(1-adamantyl)-2-methylphenyl)-2-chloro-5-nitrobenzenesulfonamide] were, in that order, 238 °C, 100% and 100%.
The like results for `Cc1cc(NC(=O)c2cc([N+](=O)[O-])ccc2Cl)ccc1Oc1ncc(C(F)(F)F)cc1Cl` [Compound No. 106, N-(4-(3-chloro-5-trifluoromethyl-2-pyridyloxy)-3-methylphenyl)-2-chloro-5-nitrobenzamide] were, in that order, 230 to 232 °C, 83% and 96%.
`O=C(Nc1ccc(OC23CC4CC(CC(C4)C2)C3)nc1)c1cc([N+](=O)[O-])ccc1Cl` [Compound No. 123, N-(2-(1-adamantyloxy)-5-pyridyl)-2-chloro-5-nitrobenzamide]: the melting point fell in the range of 98 to 105 °C. Further, the inhibition at 100 ppm in data set [1] is 100%. Further, the inhibition at 100 ppm in data set [2] came out at 100%.
`O=C(Nc1ccc(Oc2ncc(C(F)(F)F)cc2Cl)c(-n2cccc2)c1)c1cc([N+](=O)[O-])ccc1Cl` [Compound No. 127, N-(4-(3-chloro-5-trifluoromethyl-2-pyridyloxy)-3-(1-pyrrolyl)phenyl)-2-chloro-5-nitrobenzamide] displayed a melting point of 165 to 167 °C. Also, the inhibition at 100 ppm in data set [1] worked out at 100%. In addition, in data set [2], the inhibition at 100 ppm amounted to 100%.
Molecule `O=C(Nc1ccc(Oc2ccc(C(F)(F)F)cn2)c(Cl)c1)c1ccc(F)cc1F` [compound 11] registered a melting point of 145 to 147 °C. Further, in data set [1], the inhibition at 100 ppm is 37%.
Turning to `O=C(Nc1ccc(Oc2ccc(C(F)(F)F)cn2)c(Cl)c1)c1ccccc1` [compound 14], the melting point lay within 170 to 172 °C. For the same molecule, in data set [1], the inhibition at 100 ppm came out at 46%.
For `O=C(Nc1ccc(Oc2ccc(C(F)(F)F)cn2)c(Cl)c1)c1cc(Cl)cc(Cl)c1O` [compound 16] the same measures were 176 to 178 °C and 100%.
As to `Cc1ccccc1NC(=O)c1cc([N+](=O)[O-])ccc1Cl` [compound 19], the inhibition at 100 ppm in data set [1] was 96%; in data set [2], 88%.
For `Cc1cc(C23CC4CC(CC(C4)C2)C3)ccc1NS(=O)(=O)c1cc(Cl)ccc1Cl` [compound 24], the melting point stood at 200 °C. For the same molecule, the inhibition at 100 ppm in data set [1] came to 100%.
`O=C(Nc1ccccc1C(F)(F)F)c1cc([N+](=O)[O-])ccc1Cl` [compound 39]: the inhibition at 100 ppm in data set [1] was found to be 97%; in data set [2], 100%.
For `O=C(Nc1ccc(Nc2ccccc2)cc1)c1cc([N+](=O)[O-])ccc1Cl` [compound 65] the same measures were 100% and 100%.
In the case of `O=C(Nc1ccc(Oc2ccc(C(F)(F)F)cn2)c(Cl)c1)c1ccccc1Cl` [compound 71], the melting point fell in the range of 168 to 169 °C. Moreover, the inhibition at 100 ppm in data set [1] is 89%.
For `O=C(Nc1ccc(Oc2ccc(C(F)(F)F)cn2)c(Cl)c1)c1ccc(Oc2ccc(C(F)(F)F)cn2)c(Cl)c1` [compound 72] the same measures were 206 to 209 °C and 51%.
Turning to `O=C(Nc1ccc(Oc2ccc(C(F)(F)F)cc2Cl)cc1)c1cc([N+](=O)[O-])ccc1F` [compound 95], the inhibition at 100 ppm in data set [1] and in data set [2] was 100% throughout.
In the case of `Cc1cc(C23CC4CC(CC(C4)C2)C3)ccc1N(C)C(=O)c1cc([N+](=O)[O-])ccc1Cl` [compound 102], the inhibition at 100 ppm in data set [1] and in data set [2] was 100% in each case.
Regarding `O=C(Nc1ccc([S+]([O-])c2ncc(C(F)(F)F)cc2Cl)cc1)c1cc([N+](=O)[O-])ccc1Cl` (stereo not drawn) [compound 103], the inhibition at 100 ppm in data set [1] and in data set [2] was 100% each time.
Take `O=C(Nc1ccc(S(=O)(=O)c2ncc(C(F)(F)F)cc2Cl)cc1)c1cc([N+](=O)[O-])ccc1Cl` [compound 104]: the inhibition at 100 ppm in data set [1] and in data set [2] was 100% in each case.
Take `O=C(Nc1ccc(Oc2ncc(C(F)(F)F)cc2Cl)c([N+](=O)[O-])c1)c1cc([N+](=O)[O-])ccc1Cl` [compound 108]: the melting point lay in the range of 233 to 236 °C.
As for `O=C(Nc1ccc(Oc2ncc(C(F)(F)F)cc2Cl)c(C2CCCCC2)c1)c1cc([N+](=O)[O-])ccc1Cl` [compound 114], the inhibition at 100 ppm in data set [1] and in data set [2] was 100% each time.
As to `O=C(Nc1ccc(OC2C3CC4CC(C3)CC2C4)nc1)c1cc([N+](=O)[O-])ccc1Cl` (stereo not drawn) [compound 124], the inhibition at 100 ppm in data set [1] and in data set [2] was 100% each time.
With `O=C(Nc1ccc(OC23CC4CC(CC(C4)C2)C3)cc1)c1cc([N+](=O)[O-])ccc1Cl` [compound 134], the inhibition at 100 ppm in data set [1] was determined as 97%; in data set [2] it was 98%.
For the molecule `O=C(Nc1ccc(NC23CC4CC(CC(C4)C2)C3)nc1)c1cc([N+](=O)[O-])ccc1Cl` [compound 147], the values for the inhibition at 100 ppm in data set [1] and in data set [2] were 99% and 100%, respectively.
